Laboratory results published in US8445492B2, “Method for inhibiting growth of cancer cells and cell telomere and diseases of cell proliferation by using heteroannelated anthraquinone derivative compounds” (National Defense Medical Center, priority 2008, dated 2013).
Read-outs that look alike come from different tables or passages of the source.

What was measured:
HOP-62 [1] = tested on: HOP-62
A549/ATCC [2] = assay: cells; settings: Homo sapiens, A549
NCI-H226 [3] = tested on: NCI-H226
EKVX [4] = assay: cells; settings: Homo sapiens
HOP-92 [5] = tested on: HOP-92
HCC-2998 = assay: in vitro test at 1.0×10^−5 M, Colorectal cancer cell; assay type: cell-based; settings: 1.0×10^−5 molal concentration (M)
HOP-92 [6] = assay: cells; settings: Homo sapiens, HOP-92
RPMI-8226 [7] = assay: cells; settings: Homo sapiens, RPMI-8226
MOLT-4 [8] = tested on: MOLT-4
K-562 [9] = assay: cells; settings: Homo sapiens, K562
NCI-H226 [10] = assay: cells; settings: Homo sapiens, NCI-H226
HOP-62 [11] = assay: cells; settings: Homo sapiens, HOP-62
K-562 [12] = tested on: K-562
RPMI-8226 [13] = tested on: RPMI-8226
HL-60(TB) [14] = assay: cells; settings: Homo sapiens, HL-60
[15] = tested on: different cancer cell lines; assay: in vitro test at 1.0×10^−5 M, summary over the cell lines; assay type: cell-based; set-up: unit not given here; settings: 1.0×10^−5 molal concentration (M)
NCI-H460 [16] = assay: cells; settings: Homo sapiens, NCI-H460
NCI-H522 [17] = assay: cells; settings: Homo sapiens, NCI-H522
HL-60(TB) [18] = tested on: HL-60(TB)
PC-3 = assay: cells; settings: Homo sapiens, PC-3
NCI-H522 [19] = tested on: NCI-H522
NCI-H460 [20] = tested on: NCI-H460
MOLT-4 [21] = assay: cells; settings: Homo sapiens, MOLT-4
HOP-62 [22] = assay: in vitro test at 1.0×10^−5 M, Non-small cell lung cancer cell; assay type: cell-based; settings: 1.0×10^−5 molal concentration (M)
DU-145 = assay: cells; settings: Homo sapiens, DU-145
HS 578T = assay: in vitro test at 1.0×10^−5 M, Breast cancer cell; assay type: cell-based; settings: 1.0×10^−5 molal concentration (M)
NCI-H23 [23] = assay: cells; settings: Homo sapiens, NCI-H23
EKVX [24] = tested on: EKVX
A549/ATCC [25] = tested on: A549/ATCC
NCI-H23 [26] = tested on: NCI-H23

Question: With CCc1nc2ccc3c(c2[nH]1)C(=O)c1ccccc1C3=O [No. 4, 2-Ethyl-1(3)H-anthra[1,2-d]imidazole-6,11-dione] as the molecule, how does the TGI (CCRF-CEM; CCRF-CEM) read?
Answer: >1.00E−4

Question: What about the “Percent Growth” value (CCRF-CEM; Log10 Concentration −4.0) of the same molecule?
Answer: 15%

Question: What about the “Percent Growth” value (CCRF-CEM; Log10 Concentration −5.0) of the same molecule?
Answer: 51%

Question: And the “Percent Growth” value (CCRF-CEM; Log10 Concentration −6.0)?
Answer: 95%

Question: What about the “Percent Growth” value (CCRF-CEM; Log10 Concentration −7.0) of the same molecule?
Answer: 94%

Question: What about the “Percent Growth” value (CCRF-CEM; Log10 Concentration −8.0) of the same molecule?
Answer: 103%

Question: And the TGI (HOP-62 [1]; HOP-62)?
Answer: >1.00E−4

Question: And the “Percent Growth” value (HOP-62 [1]; Log10 Concentration −4.0)?
Answer: 38%

Question: And the “Percent Growth” value (HOP-62 [1]; Log10 Concentration −5.0)?
Answer: 72%

Question: And the “Percent Growth” value (HOP-62 [1]; Log10 Concentration −6.0)?
Answer: 87%

Question: And the “Percent Growth” value (HOP-62 [1]; Log10 Concentration −7.0)?
Answer: 94%

Question: What about the “Percent Growth” value (HOP-62 [1]; Log10 Concentration −8.0) of the same molecule?
Answer: 90%

Question: What about the GI50 (A549/ATCC [2]) of the same molecule?
Answer: 17.1 µM

Question: What about the “Percent Growth” value (NCI-H226 [3]; Log10 Concentration −4.0) of the same molecule?
Answer: 22%

Question: And the “Percent Growth” value (NCI-H226 [3]; Log10 Concentration −5.0)?
Answer: 63%

Question: And the “Percent Growth” value (NCI-H226 [3]; Log10 Concentration −6.0)?
Answer: 85%

Question: And the “Percent Growth” value (NCI-H226 [3]; Log10 Concentration −7.0)?
Answer: 89%

Question: What about the “Percent Growth” value (NCI-H226 [3]; Log10 Concentration −8.0) of the same molecule?
Answer: 85%

Question: And the TGI (NCI-H226 [3]; NCI-H226)?
Answer: >1.00E−4

Question: What about the GI50 (EKVX [4]) of the same molecule?
Answer: 1.6 µM

Question: What about the TGI (HOP-92 [5]; HOP-92) of the same molecule?
Answer: >1.00E−4

Question: And the “Percent Growth” value (HOP-92 [5]; Log10 Concentration −4.0)?
Answer: 23%

Question: And the “Percent Growth” value (HOP-92 [5]; Log10 Concentration −5.0)?
Answer: 48%

Question: And the “Percent Growth” value (HOP-92 [5]; Log10 Concentration −6.0)?
Answer: 64%

Question: And the “Percent Growth” value (HOP-92 [5]; Log10 Concentration −7.0)?
Answer: 80%

Question: And the “Percent Growth” value (HOP-92 [5]; Log10 Concentration −8.0)?
Answer: 93%

Question: And the “inhibition effect on cancer cell line (Table 2 value)” value (shortened to “inhibition effect on cancer cell line”) (HCC-2998)?
Answer: 67.67

Question: What about the GI50 (HOP-92 [6]) of the same molecule?
Answer: 7.38 µM

Question: What about the GI50 (RPMI-8226 [7]) of the same molecule?
Answer: 2.42 µM

Question: What about the “Percent Growth” value (MOLT-4 [8]; Log10 Concentration −4.0) of the same molecule?
Answer: −1%

Question: And the “Percent Growth” value (MOLT-4 [8]; Log10 Concentration −5.0)?
Answer: 49%

Question: And the “Percent Growth” value (MOLT-4 [8]; Log10 Concentration −6.0)?
Answer: 93%

Question: What about the “Percent Growth” value (MOLT-4 [8]; Log10 Concentration −7.0) of the same molecule?
Answer: 96%

Question: And the “Percent Growth” value (MOLT-4 [8]; Log10 Concentration −8.0)?
Answer: 98%

Question: And the TGI (MOLT-4 [8]; MOLT-4)?
Answer: 9.51E−5

Question: And the GI50 (K-562 [9])?
Answer: 78.3 µM

Question: What about the GI50 (NCI-H226 [10]) of the same molecule?
Answer: 20.8 µM

Question: And the GI50 (HOP-62 [11])?
Answer: 44.2 µM

Question: And the TGI (K-562 [12]; K-562)?
Answer: >1.00E−4

Question: And the “Percent Growth” value (K-562 [12]; Log10 Concentration −4.0)?
Answer: 48%

Question: And the “Percent Growth” value (K-562 [12]; Log10 Concentration −5.0)?
Answer: 63%

Question: What about the “Percent Growth” value (K-562 [12]; Log10 Concentration −6.0) of the same molecule?
Answer: 87%

Question: What about the “Percent Growth” value (K-562 [12]; Log10 Concentration −7.0) of the same molecule?
Answer: 92%

Question: What about the “Percent Growth” value (K-562 [12]; Log10 Concentration −8.0) of the same molecule?
Answer: 94%

Question: And the “Percent Growth” value (RPMI-8226 [13]; Log10 Concentration −4.0)?
Answer: −12%

Question: And the “Percent Growth” value (RPMI-8226 [13]; Log10 Concentration −5.0)?
Answer: 12%

Question: What about the “Percent Growth” value (RPMI-8226 [13]; Log10 Concentration −6.0) of the same molecule?
Answer: 73%

Question: What about the “Percent Growth” value (RPMI-8226 [13]; Log10 Concentration −7.0) of the same molecule?
Answer: 81%

Question: What about the “Percent Growth” value (RPMI-8226 [13]; Log10 Concentration −8.0) of the same molecule?
Answer: 97%

Question: And the TGI (RPMI-8226 [13]; RPMI-8226)?
Answer: 3.21E−5

Question: And the GI50 (HL-60(TB) [14])?
Answer: 7.53 µM

Question: What about the Mean [15] of the same molecule?
Answer: 58.42

Question: What about the GI50 (NCI-H460 [16]) of the same molecule?
Answer: 3.07 µM

Question: And the GI50 (NCI-H522 [17])?
Answer: 15.4 µM

Question: What about the TGI (HL-60(TB) [18]; HL-60(TB)) of the same molecule?
Answer: >1.00E−4

Question: What about the “Percent Growth” value (HL-60(TB) [18]; Log10 Concentration −4.0) of the same molecule?
Answer: 19%

Question: And the “Percent Growth” value (HL-60(TB) [18]; Log10 Concentration −5.0)?
Answer: 43%

Question: And the “Percent Growth” value (HL-60(TB) [18]; Log10 Concentration −6.0)?
Answer: 101%

Question: What about the “Percent Growth” value (HL-60(TB) [18]; Log10 Concentration −7.0) of the same molecule?
Answer: 100%

Question: And the “Percent Growth” value (HL-60(TB) [18]; Log10 Concentration −8.0)?
Answer: 100%

Question: What about the GI50 (PC-3) of the same molecule?
Answer: 14.4 µM

Question: And the “Percent Growth” value (NCI-H522 [19]; Log10 Concentration −4.0)?
Answer: 32%

Question: And the “Percent Growth” value (NCI-H522 [19]; Log10 Concentration −5.0)?
Answer: 54%

Question: And the “Percent Growth” value (NCI-H522 [19]; Log10 Concentration −6.0)?
Answer: 87%

Question: What about the “Percent Growth” value (NCI-H522 [19]; Log10 Concentration −7.0) of the same molecule?
Answer: 88%

Question: What about the “Percent Growth” value (NCI-H522 [19]; Log10 Concentration −8.0) of the same molecule?
Answer: 89%

Question: What about the TGI (NCI-H522 [19]; NCI-H522) of the same molecule?
Answer: >1.00E−4

Question: What about the “Percent Growth” value (NCI-H460 [20]; Log10 Concentration −4.0) of the same molecule?
Answer: 2%

Question: And the “Percent Growth” value (NCI-H460 [20]; Log10 Concentration −5.0)?
Answer: 25%

Question: What about the “Percent Growth” value (NCI-H460 [20]; Log10 Concentration −6.0) of the same molecule?
Answer: 74%

Question: What about the “Percent Growth” value (NCI-H460 [20]; Log10 Concentration −7.0) of the same molecule?
Answer: 82%

Question: What about the “Percent Growth” value (NCI-H460 [20]; Log10 Concentration −8.0) of the same molecule?
Answer: 84%

Question: What about the TGI (NCI-H460 [20]; NCI-H460) of the same molecule?
Answer: >1.00E−4

Question: And the GI50 (MOLT-4 [21])?
Answer: 9.31 µM

Question: What about the “inhibition effect on cancer cell line” value (HOP-62 [22]) of the same molecule?
Answer: 97.73

Question: What about the GI50 (DU-145) of the same molecule?
Answer: 5.62 µM

Question: What about the “inhibition effect on cancer cell line” value (HS 578T) of the same molecule?
Answer: −18.58

Question: What about the GI50 (NCI-H23 [23]) of the same molecule?
Answer: 9.17 µM

Question: And the TGI (EKVX [24]; EKVX)?
Answer: 9.43E−5

Question: And the “Percent Growth” value (EKVX [24]; Log10 Concentration −5.0)?
Answer: 15%

Question: And the “Percent Growth” value (EKVX [24]; Log10 Concentration −6.0)?
Answer: 59%

Question: And the “Percent Growth” value (EKVX [24]; Log10 Concentration −7.0)?
Answer: 82%

Question: What about the “Percent Growth” value (EKVX [24]; Log10 Concentration −8.0) of the same molecule?
Answer: 88%

Question: What about the TGI (A549/ATCC [25]; A549/ATCC) of the same molecule?
Answer: >1.00E−4

Question: What about the “Percent Growth” value (A549/ATCC [25]; Log10 Concentration −4.0) of the same molecule?
Answer: 17%

Question: And the “Percent Growth” value (A549/ATCC [25]; Log10 Concentration −5.0)?
Answer: 60%

Question: And the “Percent Growth” value (A549/ATCC [25]; Log10 Concentration −6.0)?
Answer: 97%

Question: What about the “Percent Growth” value (A549/ATCC [25]; Log10 Concentration −7.0) of the same molecule?
Answer: 100%

Question: And the “Percent Growth” value (A549/ATCC [25]; Log10 Concentration −8.0)?
Answer: 91%

Question: What about the “Percent Growth” value (NCI-H23 [26]; Log10 Concentration −4.0) of the same molecule?
Answer: 21%

Question: And the “Percent Growth” value (NCI-H23 [26]; Log10 Concentration −5.0)?
Answer: 49%

Question: What about the “Percent Growth” value (NCI-H23 [26]; Log10 Concentration −6.0) of the same molecule?
Answer: 74%

Question: What about the “Percent Growth” value (NCI-H23 [26]; Log10 Concentration −7.0) of the same molecule?
Answer: 88%

Question: What about the “Percent Growth” value (NCI-H23 [26]; Log10 Concentration −8.0) of the same molecule?
Answer: 92%

Question: And the TGI (NCI-H23 [26]; NCI-H23)?
Answer: >1.00E−4
